Four compounds from patent US9962398B2, “Sulfonamide compounds for inhibition of metastatic tumor growth” (Welichem Biotech Inc., priority 2010, dated 2018) can be followed below.

Data set [1] relates to 4T1 cells. The data set can be described thus: Measurement of extracellular pH in hypoxia, 4T1 cells. It is filed as cell-based, mouse. The conditions noted are these: 72 h, 400 uM MST-017. The method, then: (§1) Changes in solution pH were assessed using procedures published previously (29, 42, 43). In brief, cells were plated at appropriate density (1×10^4 cells/cm2 for 4T1 cells and its transfected derivatives, 2×10^4 cells/cm2 for 66cl4 cells, 1×10^4 cells/cm2 for 67NR cells and its transfected derivatives) in 60 mm dishes and allowed to recover overnight. A standard volume of 3 ml of fresh media/dish was then added and cells were incubated in normoxia (air+5% CO2) or hypoxia (1% O2 and 5% CO2 balanced with nitrogen) for 72 h. Care was taken to ensure that cultures grown in normoxia and hypoxia were at similar confluence and contained similar cell numbers at the time of medium collection. Collected spent media was maintained at 37° C. and pH was measured immediately using a digital pH meter. […] Cells were harvested on ice for qRT-PCR and Western blot analysis.
(§2) Ureido sulfonamides are new.
Cells were cultured for 72 h in the presence of 10 μM MST-017. Shown in FIG. 9 are representative images of the FITC-tagged inhibitor bound to the cell lines in the indicated conditions. […] For each cell line, changes in the extracellular pH in hypoxia were assessed relative to the baseline extracellular pH measured in parallel cultures grown in normoxia. *P<0.001 with a two-sided Student's t-test, compared to cells cultured without inhibitor.

Data set [2] relates to 66cl4 cells. Description: Measurement of extracellular pH in hypoxia, 66cl4 cells. It is filed as cell-based, mouse. As to conditions: 72 h, 600 uM MST-017. As to the method: as §1, §2
Shown in FIG. 9 are representative images of the FITC-tagged inhibitor bound to the cell lines in the indicated conditions. […] For each cell line, changes in the extracellular pH in hypoxia were assessed relative to the baseline extracellular pH measured in parallel cultures grown in normoxia. *P<0.001 with a two-sided Student's t-test, compared to cells cultured without inhibitor.

Data set [3] concerns 67NR-derived tumors. As to conditions: mouse, in vivo.
Protocol: For in vivo studies, the MST-017 inhibitor was administered by i.p. injection (first two doses were administered i.v.) at 75 mg/kg and 150 mg/kg 3× per week for 2 weeks. […] The compounds were solubilized in PEG400/ethanol/saline prior to injection. Vehicle components were held constant as inhibitor concentrations were varied.
(§3) Primary tumor growth rates were calculated from caliper measurements using the modified ellipsoid formula (L×W^2)/2.
Data set [4] relates to 4T1 primary tumors. The conditions noted are these: mouse, in vivo.
Protocol: For in vitro studies, the compounds were dissolved in DMSO, stored at −80° C. and diluted into culture medium just prior to application. […] For in vivo studies, the MST-017 inhibitor was administered by i.p. injection (first two doses were administered i.v.) at 75 mg/kg and 150 mg/kg 3× per week for 2 weeks. […] The compounds were solubilized in PEG400/ethanol/saline prior to injection. Vehicle components were held constant as inhibitor concentrations were varied.
as §3
Animals were inoculated orthotopically with 4T1 cells. Tumors were allowed to establish for 14 days. Mice were injected with the indicated doses of MST-017 3× per week for 2 weeks. Left panel, tumor growth was monitored by caliper-based measurement. […] Vehicle-treated and untreated animals served as controls. *P<0.02, **P<0.01 using a 2-sided Student's t-test, compared to vehicle controls.
The weights of treated animals were monitored as a measure of general inhibitor toxicity. Mice were weighed just prior to each dose of the CAIX inhibitor.
Data set [5] deals with MDA-MB-231 LM2-4Luc+ cells. The conditions noted are these: in vivo.
Description: For studies involving CAIX depletion, 1×10^7 MDA-MB-231 cells suspended in a 50% Matrigel/PBS solution were implanted subcutaneously in 6-8 week-old female NOD.CB17-prkdc^scid/J mice. […] Therapy was initiated when the tumors reached 200 mm^3. For both models, tumor growth was monitored by caliper measurement.
The initiation and termination of inhibitor treatment is indicated. n=8/group. *P<0.03, **P<0.001.
For data set [6], the system named is 4T1 mammary tumor cells. Description: Experimental metastasis assay, intravenous 4T1 cells, bioluminescence. It is filed as in vivo, mouse. The conditions noted are these: tail vein 4T1 cells, BALB/c mice, daily i.p. for 5 days, imaged 24 h after final dose. The method, then: For studies involving genetic depletion of CAIX, 4T1 or 67NR cells (5×10^5) were injected directly into the tail vein of 7-9 week-old female BALB/c mice. Mice were imaged once per week to follow the growth of metastases. Mice were euthanized 20 days post-injection and lungs were resected for further analysis. Tumor burden in the lung was quantified by manually counting nodules visible on the lung surface. For studies using sulphonamide inhibitors, 4T1 cells (1-5×10^5) were injected as described above (Pacchiano et al, (2011) J Med Chem 54:1896-1902).
Animals were treated 24 hours post inoculation of cells. Three doses were administered by i.p. injection over 6 days and the mice were imaged 24 hours following the third dose of inhibitor. […] Quantification of tumor-derived bioluminescence is shown in 12C. Regions of interest were positioned around metastatic foci and total flux (photons/sec) at the mouse surface was calculated. Data are reported as the mean±s.e.m. N=4 per group. *P<0.05.
4T1 cells were injected directly into the tail vein of BALB/c mice. […] Vehicle and inhibitor were administered by i.p. injection. Shown are representative images of tumor-cell derived bioluminescence in control and inhibitor-treated animals.

In data set [7] the test system is MDA-MB-231 LM2-4luc+ tumors. Description: ESA+ cancer stem cell population in orthotopic xenograft tumors (FACS). It is filed as in vivo, human. As to conditions: NOD/SCID mice, 38 mg/kg daily i.p., vs vehicle-treated tumors. An excerpt: MDA-MB-231 LM2-4^luc+ were implanted orthotopically into NOD/SCID mice. […] (A) Primary tumors were removed, dissociated and ESA+ cell population assessed by FACS analysis. […] (B) Data shown are the mean changes in ESA+ cells±SEM, from 3 mice. **P<0.0224.
(A xenograft is tissue or cells of one species grown in another, often human tumour cells in immunodeficient mice.)

The subject of data set [8] is MDA-231 LM2-4 Luc+ cells. The data set can be described thus: 3D Matrigel invasion assay in hypoxia. It is filed as cell-based, human. As to conditions: 4 days in hypoxia. The method, then:
A 3D “on-top” matrigel culture assay was performed as described previously (Lee et al, (2007) Nat Methods 4:359-365). […] Cells were allowed to attach for 45 minutes with side-to-side agitation every 10-15 minutes to prevent clumping of cells in the center of the well. An additional 100 μl/well media containing 10% matrigel was added to the cells and cultures were incubated in hypoxia for 4 days. Images were acquired and cultures were fixed for TUNEL using the “whole culture fixation” methodology outlined in Lee et al, (2007) Nat Methods 4:359-365).
Treatment with novel sulfonamide inhibitors of CAIX attenuates hypoxia-induced invasion of human breast cancer cells grown in 3D Matrigel™ cultures (FIG. 16). Cells were cultured in 3D “on-top” Matrigel™ assays for 4 days in hypoxia in the presence of inhibitors. DMSO-treated cell cultures served as controls. The percentage concentration of DMSO and molar concentration of inhibitors are indicated. Representative phase contrast images are shown.

The target in data set [9] is T1, hCA IX (Homo sapiens (Human), UniProt Q16790). Description: biochemical.
Data set [10] deals with hCA II (Homo sapiens (Human), UniProt P00918). The conditions noted are these: read-out: Ki (nM) hCA II; Table 3.
Data set [11] addresses hCA XII (Homo sapiens (Human), UniProt O43570). The conditions noted are these: read-out: Ki (nM) hCA XII; Table 3.
In data set [12] the target is T1, hCA IX. As to conditions: read-out: Ki (nM) hCA IX; Table 3.

Where two headings read alike, the source gives them in different places.

hCA XII, sequence (O43570 25-354): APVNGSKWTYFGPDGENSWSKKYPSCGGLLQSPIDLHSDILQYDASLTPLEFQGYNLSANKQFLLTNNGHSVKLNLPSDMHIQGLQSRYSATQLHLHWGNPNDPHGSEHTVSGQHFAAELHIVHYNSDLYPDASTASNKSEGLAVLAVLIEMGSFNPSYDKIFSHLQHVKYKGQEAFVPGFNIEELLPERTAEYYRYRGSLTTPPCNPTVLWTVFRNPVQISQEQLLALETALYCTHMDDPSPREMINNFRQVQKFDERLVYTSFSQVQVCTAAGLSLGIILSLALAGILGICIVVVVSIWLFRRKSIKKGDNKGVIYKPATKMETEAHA

Turning to `NS(=O)(=O)c1ccc(CCNC(=S)Nc2ccc(-c3c4ccc(=O)cc-4oc4cc(O)ccc34)c(C(=O)O)c2)cc1` [MST-017], the “change in extracellular pH” value in data set [1] and in [2] was “reversed acidification of the extracellular medium” each time. Also, the tumor growth entry in data set [3] was “no significant effect”; in data set [4], “significant inhibition of tumor growth”. Further, the “weights of treated animals” value in data set [3] and in data set [4] was “no significant weight reduction” each time.
Turning to `NS(=O)(=O)c1ccc(NC(=O)Nc2ccc(F)cc2)cc1` [MST-104, 4-{[(4′-Fluorophenyl)carbamoyl]amino}benzenesulfonamide], in [5], the tumor growth result was “significant, dose-dependent inhibition of tumor growth”. In addition, the “formation of metastases (tumor-derived bioluminescence)” value in data set [6] was “statistically significant decrease in the formation of metastases”. Further, the “ESA+ cell population” value in [7] is recorded as “significantly reduced ESA+ cell population”. The hypoxia-induced invasion result in data set [8] is “inhibit invasion”.
`NS(=O)(=O)c1cccc(NC(=O)Nc2c(F)c(F)c(F)c(F)c2F)c1` [MST-133, 3-(3-(Perfluorophenyl)ureido)benzenesulfonamide] displayed a Ki in data set [9] of 4.2 nM.
On to `NS(=O)(=O)c1ccc(NC(=O)Nc2cccc(Cl)c2)cc1` [MST-143, 4-(3-(3′-chlorophenyl)ureido)benzenesulfonamide], for which the figures for the inhibition constant (Ki) in data set [10], in data set [11] and in [12] were 10 nM, 8.5 nM and 8.4 nM, respectively.

The Ki is the dissociation constant of the complex between target and ligand, obtained from inhibition or displacement.
